Laboratory results as given in PubChem BioAssay AID220 (DTP/NCI, 2004).
Values joined by “and” are separate entries in the source; they are usually repeats but may differ in a detail not shown here. Equal values may be shown once. Inconclusive results are not listed.

Test system: CD8F1 mice, subcutaneous mammary adenocarcinoma, T/C%
Experiment: NCI In Vivo Anticancer Drug Screen. Data for tumor model Mammary Adenocarcinoma CD8F1 (subcutaneous) in CD8F1
Details: higher = larger tumour
Procedure, shortened: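 Compound-treated versus vehicle-treated mice with transplantable tumors; survival or tumor size compared as T/C.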

[1] = endpoint: median tumor weight (est.), dose: 12.5 mg/kg/injection, schedule: Q07DX005 (ip), vehicle: saline with Tween-80
[2] = endpoint: median tumor weight (est.), dose: 25.0 mg/kg/injection, schedule: Q07DX005 (ip), vehicle: saline with Tween-80
[3] = endpoint: median tumor weight (est.), dose: 50.0 mg/kg/injection, schedule: Q07DX005 (ip), vehicle: saline with Tween-80
[4] = endpoint: median tumor weight (est.), dose: 100.0 mg/kg/injection, schedule: Q07DX005 (ip), vehicle: saline with Tween-80
[5] = endpoint: median tumor weight (est.), dose: 200.0 mg/kg/injection, schedule: Q07DX005 (ip), vehicle: saline with Tween-80
[6] = endpoint: median tumor weight (est.), dose: 400.0 mg/kg/injection, schedule: Q07DX005 (ip), vehicle: saline with Tween-80
[7] = endpoint: median tumor weight (est.), dose: 12.5 mg/kg/injection, schedule: Q07DX005 (ip), vehicle: Klucel (hydroxypropylcellulose) (HPC)
[8] = endpoint: median tumor weight (est.), dose: 25.0 mg/kg/injection, schedule: Q07DX005 (ip), vehicle: Klucel (hydroxypropylcellulose) (HPC)
[9] = endpoint: median tumor weight (est.), dose: 100.0 mg/kg/injection, schedule: Q07DX005 (ip), vehicle: Klucel (hydroxypropylcellulose) (HPC)
[10] = endpoint: median tumor weight (est.), dose: 200.0 mg/kg/injection, schedule: Q07DX005 (ip), vehicle: Klucel (hydroxypropylcellulose) (HPC)
[11] = endpoint: median tumor weight (est.), dose: 400.0 mg/kg/injection, schedule: Q07DX005 (ip), vehicle: Klucel (hydroxypropylcellulose) (HPC)

## O=C1N(Cl)C(=O)C(c2ccc(Cl)cc2)(c2ccc(Cl)cc2)N1Cl
[1]
  T/C: 98 % of control
[2]
  T/C: 119 % of control
[3]
  T/C: 91 % of control
[4]
  T/C: 104 % of control
[5]
  T/C: 113 % of control
[6]
  T/C: 43 % of control
endpoint: median tumor weight change, dose: 12.5 mg/kg/injection, schedule: Q01DX001 (ip), vehicle: saline with Tween-80
  T/C: 98 % of control
endpoint: median tumor weight change, dose: 25.0 mg/kg/injection, schedule: Q01DX001 (ip), vehicle: saline with Tween-80
  T/C: 68 % of control
endpoint: median tumor weight change, dose: 50.0 mg/kg/injection, schedule: Q01DX001 (ip), vehicle: saline with Tween-80
  T/C: 71 % of control
endpoint: median tumor weight change, dose: 100.0 mg/kg/injection, schedule: Q01DX001 (ip), vehicle: saline with Tween-80
  T/C: 45 % of control and 48 % of control
endpoint: median tumor weight change, dose: 200.0 mg/kg/injection, schedule: Q01DX001 (ip), vehicle: saline with Tween-80
  T/C: 44 % of control and 53 % of control
endpoint: median tumor weight change, dose: 400.0 mg/kg/injection, schedule: Q01DX001 (ip), vehicle: saline with Tween-80
  T/C: 24 % of control

## C=C1C(=O)OCC1C(=O)O (stereo not drawn)
endpoint: median tumor weight change, dose: 15.62 mg/kg/injection, schedule: Q01DX001 (ip), vehicle: suspension in saline
  T/C: 101 % of control
endpoint: median tumor weight change, dose: 62.5 mg/kg/injection, schedule: Q01DX001 (ip), vehicle: suspension in saline
  T/C: 89 % of control
endpoint: median tumor weight change, dose: 125.0 mg/kg/injection, schedule: Q01DX001 (ip), vehicle: suspension in saline
  T/C: 123 % of control

## O=c1[nH]c(=O)n(C2CC(O)C(CO)O2)cc1I (stereo not drawn)
endpoint: median tumor weight (est.), dose: 182.87 mg/kg/injection, schedule: Q07DX005 (ip), vehicle: saline with Tween-80
  T/C: 99 % of control
endpoint: median tumor weight (est.), dose: 365.75 mg/kg/injection, schedule: Q07DX005 (ip), vehicle: saline with Tween-80
  T/C: 76 % of control
endpoint: median tumor weight (est.), dose: 731.5 mg/kg/injection, schedule: Q07DX005 (ip), vehicle: saline with Tween-80
  T/C: 91 % of control
endpoint: median tumor weight (est.), dose: 800.0 mg/kg/injection, schedule: Q07DX005 (ip), vehicle: saline with Tween-80
  T/C: 45 % of control and 50 % of control
endpoint: median tumor weight (est.), dose: 1463.0 mg/kg/injection, schedule: Q07DX005 (ip), vehicle: saline with Tween-80
  T/C: 50 % of control
endpoint: median tumor weight (est.), dose: 1600.0 mg/kg/injection, schedule: Q07DX005 (ip), vehicle: saline with Tween-80
  T/C: 46 % of control and 53 % of control
endpoint: median tumor weight (est.), dose: 3200.0 mg/kg/injection, schedule: Q07DX005 (ip), vehicle: saline with Tween-80
  T/C: 7 % of control and 10 % of control

## CCSC(=O)N1c2ccc(OC)cc2C=CC1C#N (stereo not drawn)
[1]
  T/C: 93 % of control
[2]
  T/C: 93 % of control
[3]
  T/C: 69 % of control
[4]
  T/C: 90 % of control
endpoint: median tumor weight (est.), dose: 225.0 mg/kg/injection, schedule: Q07DX005 (ip), vehicle: saline with Tween-80
  T/C: 59 % of control
[6]
  T/C: 97 % of control
endpoint: median tumor weight (est.), dose: 450.0 mg/kg/injection, schedule: Q07DX005 (ip), vehicle: saline with Tween-80
  T/C: 95 % of control
endpoint: median tumor weight (est.), dose: 900.0 mg/kg/injection, schedule: Q07DX005 (ip), vehicle: saline with Tween-80
  T/C: 78 % of control

## Cc1cc2nc3c(=O)[nH]c(=O)nc-3n(CC(O)C(O)C(O)C(O)CO)c2cc1C (stereo not drawn)
endpoint: median tumor weight (est.), dose: 200.0 mg/kg/injection, schedule: Q07DX005 (ip), vehicle: suspension in saline
  T/C: 87 % of control and 100 % of control
endpoint: median tumor weight (est.), dose: 400.0 mg/kg/injection, schedule: Q07DX005 (ip), vehicle: suspension in saline
  T/C: 58 % of control and 64 % of control

## ClCCCCCCCCCCc1ccccc1
[7]
  T/C: 87 % of control
[8]
  T/C: 88 % of control
[9]
  T/C: 71 % of control
[10]
  T/C: 71 % of control
[11]
  T/C: 72 % of control

## CC(C)(C)C1CCCCC1
[7]
  T/C: 85 % of control
[8]
  T/C: 69 % of control
[9]
  T/C: 94 % of control
[10]
  T/C: 73 % of control
[11]
  T/C: 69 % of control

## CN(C)c1nc(N(C)C)nc(N(C)C)n1
endpoint: mean tumor weight, dose: 75.0 mg/kg/injection, schedule: Q01DX009 (ip), vehicle: saline
  T/C: 64 % of control
endpoint: mean tumor weight, dose: 150.0 mg/kg/injection, schedule: Q01DX009 (ip), vehicle: saline
  T/C: 94 % of control
endpoint: mean tumor weight, dose: 250.0 mg/kg/injection, schedule: Q07DX006 (ip), vehicle: saline
  T/C: 108 % of control
endpoint: mean tumor weight, dose: 300.0 mg/kg/injection, schedule: Q01DX009 (ip), vehicle: saline
  T/C: 8 % of control
endpoint: mean tumor weight, dose: 300.0 mg/kg/injection, schedule: Q07DX006 (ip), vehicle: saline
  T/C: 113 % of control
endpoint: median tumor weight (est.), dose: 12.5 mg/kg/injection, schedule: Q07DX006 (ip), vehicle: saline with Tween-80
  T/C: 100 % of control
endpoint: median tumor weight (est.), dose: 16.0 mg/kg/injection, schedule: Q07DX005 (ip), vehicle: saline with Tween-80
  T/C: 171 % of control
[2]
  T/C: 80 % of control
endpoint: median tumor weight (est.), dose: 25.0 mg/kg/injection, schedule: Q07DX006 (ip), vehicle: saline with Tween-80
  T/C: 54 % of control
endpoint: median tumor weight (est.), dose: 32.0 mg/kg/injection, schedule: Q07DX005 (ip), vehicle: acid diluted with saline
  T/C: 31 % of control
endpoint: median tumor weight (est.), dose: 32.0 mg/kg/injection, schedule: Q07DX005 (ip), vehicle: saline with Tween-80
  T/C: 179 % of control
[3]
  T/C: 73 % of control
endpoint: median tumor weight (est.), dose: 50.0 mg/kg/injection, schedule: Q07DX006 (ip), vehicle: saline with Tween-80
  T/C: 50 % of control
endpoint: median tumor weight (est.), dose: 64.0 mg/kg/injection, schedule: Q07DX005 (ip), vehicle: acid diluted with saline
  T/C: 39 % of control
endpoint: median tumor weight (est.), dose: 64.0 mg/kg/injection, schedule: Q07DX005 (ip), vehicle: saline with Tween-80
  T/C: 212 % of control and 76 % of control
[4]
  T/C: 62 % of control
endpoint: median tumor weight (est.), dose: 100.0 mg/kg/injection, schedule: Q07DX006 (ip), vehicle: saline with Tween-80
  T/C: 78 % of control
endpoint: median tumor weight (est.), dose: 128.0 mg/kg/injection, schedule: Q07DX005 (ip), vehicle: acid diluted with saline
  T/C: 53 % of control
[5]
  T/C: 44 % of control
endpoint: median tumor weight (est.), dose: 200.0 mg/kg/injection, schedule: Q07DX006 (ip), vehicle: saline with Tween-80
  T/C: 5 % of control
endpoint: median tumor weight (est.), dose: 256.0 mg/kg/injection, schedule: Q07DX005 (ip), vehicle: acid diluted with saline
  T/C: 29 % of control
endpoint: median tumor weight change, dose: 100.0 mg/kg/injection, schedule: Q01DX001 (ip), vehicle: acid diluted with saline
  T/C: 103 % of control and 104 % of control
endpoint: median tumor weight change, dose: 200.0 mg/kg/injection, schedule: Q01DX001 (ip), vehicle: acid diluted with saline
  T/C: 61 % of control
endpoint: median tumor weight change, dose: 800.0 mg/kg/injection, schedule: Q01DX001 (ip), vehicle: acid diluted with saline
  T/C: 37 % of control and 51 % of control

## COc1ccc([I+]c2cccc(Cl)c2)cc1Cl
endpoint: median tumor weight (est.), dose: 3.12 mg/kg/injection, schedule: Q07DX005 (ip), vehicle: saline with Tween-80
  T/C: 189 % of control
[1]
  T/C: 34 % of control
[3]
  T/C: 111 % of control

## CCOC(OCC)C(=O)OCC(=O)[C@]1(O)Cc2c(O)c3c(c(O)c2[C@@H](OC2CC(N)C(O)C(C)O2)C1)C(=O)c1c(OC)cccc1C3=O (stereo partly drawn)
endpoint: median tumor weight (est.), dose: 0.5 mg/kg/injection, schedule: Q07DX005 (ip), vehicle: water
  T/C: 166 % of control
endpoint: median tumor weight (est.), dose: 1.0 mg/kg/injection, schedule: Q07DX005 (ip), vehicle: saline
  T/C: 85 % of control
endpoint: median tumor weight (est.), dose: 1.0 mg/kg/injection, schedule: Q07DX005 (ip), vehicle: water
  T/C: 50 % of control
endpoint: median tumor weight (est.), dose: 2.0 mg/kg/injection, schedule: Q07DX005 (ip), vehicle: saline
  T/C: 47 % of control
endpoint: median tumor weight (est.), dose: 2.0 mg/kg/injection, schedule: Q07DX005 (ip), vehicle: water
  T/C: 74 % of control
endpoint: median tumor weight (est.), dose: 4.0 mg/kg/injection, schedule: Q07DX005 (ip), vehicle: saline
  T/C: 20 % of control
endpoint: median tumor weight (est.), dose: 4.0 mg/kg/injection, schedule: Q07DX005 (ip), vehicle: water
  T/C: 24 % of control

## C=C(C)/C([O-])=N/[N+](C)(C)CC(O)CCCCCCCCCCCC (stereo not drawn)
endpoint: median tumor weight change, dose: 125.0 mg/kg/injection, schedule: Q01DX001 (ip), vehicle: saline
  T/C: 63 % of control
endpoint: median tumor weight change, dose: 250.0 mg/kg/injection, schedule: Q01DX001 (ip), vehicle: saline
  T/C: 111 % of control
